# Where two headings read alike, the source gives them in different places.
# Columns and labels:
# [1] = Stability in liver microsomes; type: in vitro ADME; details: human liver microsomes 1.0 mg/mL, 10 μM, NADPH, 60 min
# Method: (§1) Stability of test compounds were determined in human liver and intestinal microsomes in duplicate for each matrix. Pooled liver and intestinal microsomal proteins (1.0 mg/mL), suspended in incubation buffer (100 mM potassium phosphate, pH 7.4, 5 mM MgCl2, and 0.1 mM EDTA), were preincubated for 5 min at 37° C. with 10 μM of a test compound from a 10 mM stock solution in DMSO (final DMSO concentration was 0.1%); the reaction was initiated by the addition of NADPH (3 mM final concentration). At specific times (0 and 60 min), 0.1 mL samples were taken and the reaction terminated by the addition of 4 volumes of stop solution (acetonitrile with 500 ng/mL carbutamide as an internal standard). The samples were vortexed for 30 sec and then centrifuged at 16000×g for 10 min. 100 μL of supernatants were transferred to 96 deep-well plates preloaded with 100 μL distilled water and analyzed after mixing by LC-MS/MS. The MS peak area ratio of the test compound versus the internal standard was calculated and percent unchanged test compound over 60 minutes was calculated using this ratio.
# [2] = Plasma prodrug and nucleoside pharmacokinetics after single oral dose in cynomolgus monkeys; type: in vivo; details: single oral 10 mg/kg
# Method: (§2) For each compound, a single oral dose at 10 mg/kg in PEG 200 (dose volume 3 mL/kg) was administered to cynomolgus monkeys. Untreated animals were used for the collection of control liver. Plasma samples were collected at 0.5, 1, 2, 4, 6, 8, 12 and 24 hours for compound 37, diastereomer 2.
# Plasma samples were analyzed for the prodrug and nucleoside by LC-MS/MS. For protein precipitation and extraction, each plasma sample (50 μL) was treated with 500 μL of 0.2% formic acid in acetonitrile and 20 μL of an appropriate internal standard working solution. After vortexing and centrifugation, 500 µL of the sample extracts were transferred to a new plate, dried under N2 at ˜28° C. and reconstituted with 75 μL of 0.2% FA in water. The extracts were chromatographed on an Aquasil C18 column using a gradient system of 0.2% formic acid in water and acetonitrile. The analytes were detected and quantified by tandem mass spectrometry in positive ion mode on an MDS Sciex API4000 equipped with a Turbo Ionspray® interface.
# [3] = system: Zluc cells; experiment: Cytotoxicity evaluation, CellTiter-Blue Cell Viability Assay; details: Zluc cells, CellTiter-Blue
# [4] = Plasma nucleoside pharmacokinetics after single oral dose in CD-1 mice; type: in vivo; details: single oral dose 10 mg/kg in PEG 200;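 for Ms Plasma nucleoside AUC: pmol·h/mL plasma normalized to a 1 µmol/kg dose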
# How it was run: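 Mouse plasma was extracted by acetonitrile/0.2% formic acid protein precipitation using 2′-MeG-D3 or tiapride as internal standard. Nucleoside was quantified by positive-ion LC-MS/MS after C18 gradient separation. Calibration spanned 0.500 (LLOQ) to 200 ng/mL.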
# [5] = Liver triphosphate pharmacokinetics after single oral dose in cynomolgus monkeys; type: in vivo
# Method: as §2
# Liver samples were analyzed for the relevant nucleoside triphosphate by LC-MS/MS. […] Appropriate internal standard solution was added to the homogenate followed by neutralization with 20% ammonium hydroxide solution and addition of 500 μL 1% formic acid. The tissue samples were extracted by weak anion exchange solid phase extraction (SPE). Post extraction, the eluates were evaporated under nitrogen, followed by reconstitution before injection onto the LC-MS/MS system.
# [6] = molecular target: HCV genotype 1b replicon; experiment: HCV replicon assay (Zluc luciferase); type: cell-based; details: Zluc cells, 72 hours; read-out: HCV Replicon EC50
# How it was run: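 Zluc Huh-7 cells with HCV genotype 1b replicon and luciferase reporter treated with 5-fold dilutions (100 μM to 0.0000512 μM final) in duplicate, or at 1 and 10 μM. Luminescence read with ONE-glo; EC50 from dose-response fits, or % inhibition at the fixed concentrations.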
# [7] = Stability in intestinal microsomes; type: in vitro ADME; details: human intestinal microsomes 1.0 mg/mL, 10 μM, NADPH, 60 min
# Method: as §1
# [8] = system: fresh mouse hepatocytes; experiment: Release of active metabolite in fresh mouse hepatocytes; type: in vitro ADME; details: 10 μM
# Method: Plates of fresh human and mouse hepatocytes were obtained on ice. The medium was removed and replaced with hepatocyte culture medium (William's E supplemented with penicillin-streptomycin, 1% L-glutamine, 1% insulin-transferrin-selenium and 0.1 μM Dexamethasone (Invitrogen) or with Invitro GRO HI medium complemented with Torpedo antibiotics (Celsis)). Cells were left overnight in an incubator at 37° C. to acclimatize to culture and the medium.
# Hepatocyte incubations were conducted at a final volume of 0.5 mL hepatocyte culture medium/well (0.8 million cells/well for human and 0.5 million cells/well for mouse; 12 well plate no overlay, collagen coat). Culture medium from overnight incubation of cells was removed and replaced with fresh medium, pre-warmed to 37° C., containing 10 μM of test compound from a stock solution in DMSO (final DMSO concentration was 0.1%). At each specific time point, incubation medium was removed and cell monolayers were carefully washed two times with ice-cold PBS. Following the last wash, all PBS was carefully removed and 1.0 mL of extraction solution (ice-cold 70% methanol/30% water) added. Cells were scraped off and suspended in the extraction solution, transferred to 2 mL polypropylene microfuge tubes and intracellular contents extracted overnight at −20° C.
# After the overnight treatment the cellular extracts were prepared by centrifugation at 16,000×g for 10 min to remove cellular debris. The remaining sample was then dried using a refrigerated centrivap concentrator. Dry extracts were reconstituted in 1000 μL of HPLC-grade water and centrifuged at 16,000×g for 10 min. Aliquots (100 μL each) of the supernatant were transferred into a 96 well plate and internal standard (4 ng/mL final concentration) was added as the internal standard (IS) for LC-MS/MS analysis.
# The incubation time points were 6, 24 and 48 hours for human hepatocytes and 1, 4, 8, 12 and 24 hours for mouse hepatocytes.
# [9] = system: HCV genotype 1b replicon; experiment: HCV replicon assay in Zluc cells transiently transfected with human CES1; type: cell-based; details: for EC50: Zluc cells transiently transfected with human CES1, 72 hours; for Effect of CES1 overexpression on replicon activity: cells overexpressing CES1 versus Zluc; for Fold Activity Increase EC50 (Zluc)/EC50 (Zluc + CES1): ratio of replicon EC50 without and with CES1 overexpression
# Method: (§3) An Huh-7-derived cell line (Zluc) that harbors an HCV genotype 1b replicon and a luciferase reporter gene was grown in Dulbecco's Modified Eagle Medium (DMEM) supplemented with 10% fetal bovine serum, 2 mM GlutaMAX, 1% MEM nonessential amino acids, 100 IU/mL penicillin, 100 μg/mL streptomycin, and 0.5 mg/mL Geneticin® (G418). Zluc cells were transiently transfected with human CES1 (GenBank Accession No. NM_001025194) by employing a lipid/histone based transfection procedure. Expression of CES1 was confirmed by Western blot, 24- and 48-hours after transfection, using anti-CES1 and anti-FLAG® tag antibodies.
# For dose response testing the cells were seeded in 96-well plates at 7.5×10^3 cells per well in a volume of […], and incubated at 37° C./5% CO2. Drug solutions were prepared freshly in the culture medium as 2× stocks. Ten additional 5-fold dilutions were prepared from these stocks in DMEM without G418. At least three hours after cells were seeded, drug treatment was initiated by adding 50 μL of drug dilutions to the plates in duplicate. Final concentrations of drug ranged from 100 μM to 0.0000512 μM. Cells were then incubated at 37° C./5% CO2. […] For this, media was removed from the plates via gentle tapping. Fifty microliters of ONE-glo luciferase assay reagent was added to each well. The plates were shaken gently for 3 min at room temperature and luminescence was measured on a Victor^3 V 1420 multilabel counter (Perkin Elmer) with a 1 second read time using a 700 nm cut-off filter. The EC50 values were calculated from dose response curves from the resulting best-fit equations determined by Microsoft Excel and XLfit 4.1 software.
# [10] = system: Zluc cells; experiment: Cytotoxicity in Zluc cells (CES1 study); type: cell-based
# Method: (§4) For cytotoxicity evaluation, cells were treated with compounds as described herein, and cell viability was monitored using the CellTiter-Blue Cell Viability Assay (Promega) by adding 20 μL of the assay solution to each well. The plates were then incubated at 37° C./5% CO2 for at least 3 hours.
# [11] = system: HCV genotype 1b replicon; experiment: HCV replicon assay in Zluc cells (CES1 study); type: cell-based; details: 72 hours
# Method: as §3
# For dose response testing the cells were seeded in 96-well plates at 7.5×10^3 cells per well in a volume of […], and incubated at 37° C./5% CO2. Drug solutions were prepared freshly in the culture medium as 2× stocks. Ten additional 5-fold dilutions were prepared from these stocks in DMEM without G418. At least three hours after cells were seeded, drug treatment was initiated by adding 50 μL of drug dilutions to the plates in duplicate. […] The plates were shaken gently for 3 min at room temperature and luminescence was measured on a Victor^3 V 1420 multilabel counter (Perkin Elmer) with a 1 second read time using a 700 nm cut-off filter. The EC50 values were calculated from dose response curves from the resulting best-fit equations determined by Microsoft Excel and XLfit 4.1 software.
# [12] = system: Zluc + CES1 cells; experiment: Cytotoxicity in Zluc cells transfected with human CES1; type: cell-based; details: Zluc cells transiently transfected with human CES1
# Method: as §3, §4
# [13] = Cytotoxicity in Zluc cells (CES1 study); type: cell-based; details: human
# Method: as §4
# [14] = Cytotoxicity in Zluc cells transfected with human CES1; type: cell-based; details: Zluc cells transiently transfected with human CES1
# Method: as §3, §4
# [15] = single oral 10 mg/kg, normalized to 1 μmol/kg dose
structure (smiles),measurement,setting,value
"CC(C)OC(=O)[C@@H](C)NP(=O)(OC[C@H]1O[C@@H](n2ccc(=O)[nH]c2=O)[C@](C)(Cl)[C@@H]1O)Oc1ccccc1 (single isomer, unassigned; diastereomer 1) [Compound 40i Diastereomer 1]",HLM (1 hr) stability (percent remaining),[1],+ (+ ≤ 25%)
same,Plasma nucleoside Tmax,[2],6 h
same,Plasma prodrug Tmax,[2],2 h
same,Plasma nucleoside AUC0-24,[2]; normalized to 1 μmol/kg dose,++ (150 < ++ ≤ 500)
same,Plasma prodrug AUC0-24,[2]; normalized to 1 μmol/kg dose,+ (+ ≤ 150)
same,Cmax,"[2]; normalized to 1 μmol/kg dose, read-out: Plasma nucleoside Cmax",15 to 50 nM
same,Cmax,"[2]; normalized to 1 μmol/kg dose, read-out: Plasma prodrug Cmax",≤ 15 nM
same,CC50,[3],> 50 µM
same,Ms Plasma nucleoside AUC,[4],+++ (500 < +++ ≤ 1500)
same,Ms Plasma nucleoside Cmax,[4],+++ (50 < +++ ≤ 100)
same,Nucleoside triphosphate in Liver C6,"[5]; 6 hours post dose, 10 mg/kg oral, normalized to 1 μmol/kg dose",++++ (100 < ++++)
same,Nucleoside triphosphate in Liver Tmax,[5]; single oral 10 mg/kg,6 h
same,Nucleoside triphosphate in Liver AUC0-24,[5]; [15],++++ (1500 < ++++)
same,Nucleoside triphosphate in Liver Cmax,[5]; [15],++++ (100 < ++++)
same,EC50,[6],> 10 µM
same,HIM (1 hr) stability (percent remaining),[7],+++ (50% < +++ ≤ 75%)
same,MsH AUC,[8],++++ (1500 < ++++)
same,MsH Cmax,[8],++++ (100 < ++++)
CC(C)(CO)C(=O)SCCOP(=O)(NCc1ccccc1)OC[C@H]1O[C@@H](n2cnc3c(=O)[nH]c(N)nc32)[C@](C)(O)[C@@H]1O (stereo partly drawn) [IDX-184],EC50,[9],< 0.25 µM
same,Effect of CES1 overexpression on replicon activity,[9],not increased
same,Fold Activity Increase EC50 (Zluc)/EC50 (Zluc + CES1),[9],+ (+ ≤ 1)
same,CC50,[10],> 50 µM
same,EC50,[11],< 0.25 µM
same,CC50,[12],> 50 µM
"CC(C)OC(=O)[C@H](C)N[P@](=O)(OC[C@H]1O[C@@H](n2ccc(=O)[nH]c2=O)[C@](C)(F)[C@@H]1O)Oc1ccccc1 [Sofosbuvir, sofosbuvir]",EC50,[9]; Hepatitis C virus,0.25 to 1 µM
same,Effect of CES1 overexpression on replicon activity,[9],not increased
same,Fold Activity Increase EC50 (Zluc)/EC50 (Zluc + CES1),[9],+ (+ ≤ 1)
same,CC50,[13],> 50 µM
same,EC50,[11]; Hepatitis C virus,0.25 to 1 µM
same,CC50,[14],> 50 µM

# — patent US10513534B2, “2′-chloro nucleoside analogs for HCV infection” (priority 2012, dated 2019)
